In patent USRE35801E, “Prophylactic and therapeutic composition for circulatory disorders and method of treatment” (priority 1985, dated 1998):
Several values for one entry are separate records, joined by “and”; a condition that tells them apart may be missing. Identical values can stand only once.

Tests used:
[1] = test system: lipid peroxidation (brain homogenate); test: Inhibitory action of lipid peroxidation in brain homogenate (TBA value); assay type: biochemical; conditions: inhibition of lipid peroxidation, rat brain homogenate, 37° C., 30 minutes
Description: (1) Inhibitory action of lipid peroxidation (a) Preparation of brain homogenate By use of Wister-strain male rat, brain homogenate was prepared following the procedure as described below. […] Next, a brain perfusion was conducted through the tube with ice-cooled 50 mM phosphate-buffered physiological saline (pH 7.4) hereinafter referred to as "PBS"), and the whole brain was extirpated. After removal of cerebellum, the wet weight of cerebrum was measured and, with addition of 9-fold amount of PBS, it was broken by a Teflon homogenizer in ice-water to be homogenized. After the brain homogenate was subjected to centrifugation at 4° C. at 2200 rpm for 10 minutes, 0.3 ml of the supernatant was apportioned into a light-shielding test tube equipped with a ground stopper, to provide a brain homogenate for evaluation of medicine. (b) Evaluation of test medicine To the brain homogenate produced in (a), 0.6 ml of PBS and 10 μl of ethanolic solution of a test medicine were added (to a final concentration of 500 μM or a concentration at a common ratio of 3 between 0.3 and 100 μm), and the mixture was heated in a warm bath at 37° C. for 30 minutes. […] Also, the same operation was performed by addition of 10 μl of ethanol (blank) in place of 10 μl ethanolic solution of the test medicine for measurement of blank. […] After shaking for about 30 seconds, the mixture was subjected to centrifugation at 3000 rpm for 10 minutes, and the supernatant was provided as a sample for measurement of peroxidized lipid.

[2] = test system: mouse; conditions: mouse intraperitoneal administration; cited from earlier work
[3] = National Cancer Institute Report, 1978; cited from earlier work
[4] = test system: cerebral ischemia recirculation model; test: Protective action in cerebral ischemia recirculation model; assay type: in vivo, Wistar-strain male rat; design: key to Presence of electroencephalogram restoration / Judgement of action: The case when restoration of electroencephalogram is judged as +; case when not recognized as -
Description: (3) Protective action in cerebral ischemia recirculation model
A Wistar-strain male rat weighing about 400 g was administered intramascularly with 0.6 mg of di-tubocurarine to be immobilized and, after a trachea cannulation, the head portion was fixed under artificial respiration on a stereotaxic device. The head skin was cut open, cranial bone was bored, and then bipolar electrode for lead-out of electroencephalogram were placed on the surface of the subdural left frontal cerebral cortex. After the electrode was fixed with the cranial bone by use of dental cement, the animal was held on its back. Next, a cannula for measurement of systemic pressure was placed within the left femoral artery, and a cannula for additional administration of d-tubocurarine within the left femoral vein, respectively. The heart rate was measured and recorded by driving a heart rate meter with the artery wave.
After blood pressure, heart rate and various parameters of electroencephalogram were stabilized, 10 mg/kg of the active ingredient of the present invention prepared in a suspension so as to give 1 ml/kg in 1% tragacanth gum solution was administered directly into duodenum […]. To the control group, only the 1% tragacanth gum solution of the same volume was administered similarly.
Ten to twenty minutes after administration of the medicine, while monitoring the electroencephalogram, blood pressure and heart rate on a multi-purpose monitoring recording device (RM-85 model, produced by Nippon Koden K.K.), the following operations were performed according to the methods shown below for cerebral ischemia loading.
First, ribs were set free at the left costicartilage end to open the chest. Next, cerebral blood flow was blocked for ten minutes by obstructing the left common carotid artery and the left subclavian artery exposed at the aorta originating portion at the same time, and then the brachiocephalic trunk by use of artery clips 30 minutes after administration of the medicine.
Recirculation of cerebral blood flow was effected by releasing at the same time the two artery clips mounted on the respective sites as mentioned above.
The protective action of the medicine for the disorder after recirculation of cerebral ischemia was examined by the presence of restoration of electroencephalogram, and survival time of animal after the recirculation.
During the experiment, the rectal temperature of the animal was maintained at 37° to 38° C. by use of a warming mat. Also, the rectal temperature was continuously drawn on the recorder together with electroencephalogram, femoral artery pressure and heart rate.

[5] = test system: drowsy pattern of electroencephalogram induced by phenobarbital or pentobarbital sodium salt; test: Antagonistic action against drowsy pattern of electroencephalogram induced by phenobarbital or pentobarbital sodium salt; assay type: in vivo, Wistar-strain male rat; conditions: Rattus norvegicus; intravenous, sodium salt; drowsy EEG after PHB 30 mg/kg or PBT 5 mg/kg; read-out: Antagonistic action at dose or higher
Description: (2) Antagonistic action against drowsy pattern of so electroencephalogram induced by phenobarbital or pentobarbital sodium salt
A Wistar-strain male rat weighing about 400 g was intramasculary administered with 0.6 mg of d-tubocurarine to be immobilized and, while maintaining the rectal temperature at 37° to 38° C. under artificial respiration, the electroencephalogram of the left cerebral frontal cortex was measured and recorded. Also, within the left femoral artery and vein, cannulas for measurement of artery pressure and for administration of medicine were placed, respectively.
As the active ingredient of the present invention, sodium salt of the compound represented by Formula (I) was used and the respective doses of said active ingredient and 30 mg/kg of phenobarbital sodium salt (produced by Iwaki Seiyaku K.K.) (hereinafter called "PHB") or 5 mg/kg of pentobarbital sodium salt (hereinafter called PBT) were each dissolved in physiological saline and administered intravenously in a liquid amount of 1 ml/kg.
The action of the active ingredient of the present invention affecting the cortex electroencephalogram after PHB or PBT administration was investigated as follows; Namely, at the time of 5 minutes or later after PHB or PBT administration when increase of the slow-wave component can be clearly recognized on electroencephalogram, 1, 3, 10, 30 and 100 mg/kg of the active ingredient were administered. To the control group 1 ml/kg of physiological saline was intravenously administered.
Recording and analysis of electroencephalogram were continuously drawn together with artery pressure, heart rate and rectal temperature on the recorder through a multi-purpose monitoring recording device (model RM-85, produced by Nippon Koden K.K.). At the same time, electroencephalogram was recorded in data recorder (model A-65, produced by Sony K.K.), and compressed spectral array analysis was conducted by means of a computer for medical data processing (ATAC-450, produced by Nippon Koden K.K.).

Which IC50 [1] does the source give for CC1=NN(c2ccccc2)C(=O)C1 [Compound 1, 3-methyl-1-phenyl-2-pyrazolin-5-one] here?
Its IC50 is 18.2 µM.

What about the LD50 [2] of the same compound?
Its LD50 is 2012 mg/kg.

What about the carcinogenicity [3] of the same compound?
Its carcinogenicity is “free from carcinogenicity”.

And the “Presence of electroencephalogram restoration” value ([4]; 10 mg/kg into duodenum, 10 min cerebral ischemia (Table 3))?
Its value is “+”.

What about the “Survival time after recirculation, average” value ([4]; 10 mg/kg, average) of the same compound?
The value was 117 min.

And the Judgement of action ([4]; 10 mg/kg, individual animal)?
Its Judgement of action is “+”.

What about the “Presence of electroencephalogram restoration” value ([4]; 10 mg/kg, individual animal) of the same compound?
Its value is “+”.

What about the “Survival time after recirculation” value ([4]; 10 mg/kg, individual animal) of the same compound?
The value was 46 min and 140 min and 164 min.

What about the “electroencephalogram restoration during recirculation period (in words)” value ([4]; active ingredient group) of the same compound?
Its value is “electroencephalogram appeared by restoration during recirculation period depending on the dose of 3 to 10 mg/kg”.

And the “survival time of animals after recirculation (in words)” value ([4]; active ingredient group)?
Its value is “clearly elongated”.

What about the minimal effective dose [5] of the same compound?
The minimal effective dose was ≥ 1 mg/kg.
